Read-outs that look alike come from different tables or passages of the source.
How the values were obtained:
[1] = test system: Class I HDAC (HDAC1, HDAC2, HDAC3, HDAC8); experiment: Class I HDAC expression/inhibition by western blotting in PANC cells; format: cell-based, Human
Procedure: (§1) Class I HDAC expression during pancreatic tumorigenesis was next examined. Briefly different concentration of Compound I were added and incubated for 24 h. […] Inhibition of Class I HDACs is associated with the upregulation of histone H3 acetylation and p21 mRNA and protein expression which have associated with the anti-proliferative activity. It has also been reported that HDAC6 functions as a α-tubulin deacetylase, modulating tubulin stability. Because α-tubulin and histone H3 are mutual downstream targets of HDACs, the relationship between protein expression and function of molecules was further examined. The effects of Compound I on histone H3 acetylation in PANC cells using western blot analysis was studied.

[2] = test system: histone H3 acetylation, acetyl-α-tubulin; experiment: Histone H3 / α-tubulin acetylation western blot in PANC cells; format: cell-based, Human
Procedure: as §1

[3] = test system: panel of human normal cell lines; experiment: MTT cytotoxicity of anticancer agents on normal cell lines, alone and with Compound I; details: combination treatment
Procedure: The cytotoxicity of anticancer agents was studied using a panel of human normal cell lines alone and with the combination of Compound I of the present invention. The cytotoxicity effect was determined by MTT assay. The following cell lines were used: Human epidermal keratinocytes cells (HaCaT), Human dermal fibroblast (HDF), Human bone marrow mesenchymal stem cells (HBMSCs), Human normal hepatocytes cells (THLE2), Human cardiac cells (AC-16), Human intestinal epithelial cells (HIEC-6), Human neuronal cells (SHSY-5Y), Human vascular Endothelial cells (HuVECs), Human lung epithelial cells (Calu-3), Human lung fibroblast (MRC 5).
Next, the cells were treated with anticancer agents in combination with Compound I of the present invention.

lung cancer stem cells = experiment: Targeting lung cancer stem cells
From the text: Compound I is orally bioavailable, multi-tyrosine-kinase inhibitor with 120 target proteins that induces apoptosis and suppresses the invasiveness of lung cancer stem cells with no toxicity to normal cells. There were no signs of discomfort or any cardiovascular or respiratory disorders observed in animals after the administration throughout the study period.

SARS-CoV-2 [4] = format: cell-based
SARS-CoV-2 [5] = format: in vivo; details: PO 250 mg B.I.D. over 7 days

With `COc1cc(/C=C/C(=O)/C=C/C=C/c2cc(OC)c(O)c(OC)c2)cc(OC)c1` [Compound I] the “protein expression of Class I HDAC” value ([1]; 24 h, western blotting, vs control p<0.05) was “decreased in a dose-dependent manner”, the “inhibition of HDAC1, HDAC2, HDAC3 and HDAC8” value ([1]; PANC cells) was “significantly inhibited” and the acetyl-α-tubulin [2] was “no acetyl-α-tubulin was detected”. For the same compound, the “histone H3 acetylation” value ([2]; compared with control) was “stronger hyperacetylation”, the “effect on toxicity induced by anticancer agents in normal cells” value [3] was “reduces the toxic effect induced by anticancer agents” and the “effect on lung cancer stem cells” value (lung cancer stem cells) was “induces apoptosis and inhibits metastasis without harming the normal cells”. For the same compound, the inhibition (SARS-CoV-2 [4]; 1 μM added after 10 h post infection) was “no inhibition”, the inhibition (SARS-CoV-2 [4]; 1 μM added between 6 and 8 h post infection) was “Less inhibition” and the inhibition (SARS-CoV-2 [4]; 1 μM added between 2 h pre-infection and 2-h post infection) was “Maximal inhibition”. The “viral RNA levels (qPCR)” value (SARS-CoV-2 [4]; increasing concentrations) was “decreased”, the “time to decrease of overactivated cytokine-secreting immune cells” value (SARS-CoV-2 [5]) was 3 to 5 days and the “time to improved pulmonary function and symptoms” value (SARS-CoV-2 [5]) was 4 to 5 days.

From patent publication US20230270692A1, “COMPOUNDS FOR CHRONIC DISORDERS” (Pillai Universal LLC, priority 2020, published 2023)
